Series [1] can be described thus: Partition coefficient (logD) (octanol/phosphate buffer). The format is physicochemical.
For series [2], the species on record is Rattus norvegicus. The series can be described thus: Compound was evaluated for prevention of spontaneous lipid peroxidation in rat brain homogenate. The format is functional.
Series [3] concerns Rattus norvegicus. The series can be described thus: Total radioactivity 1 hour after intravenous administration of 1 mg/kg in rat blood. The format is functional.
For series [4], the system named is Rattus norvegicus. The series can be described thus: Total radioactivity 1 hour after intravenous administration of 1 mg/kg in rat skeletal muscle. In kind it is functional, Muscle tissue.
Series [5] is described as follows: Ratio of total radioactivity of blood to blood in rats.
Series [6] is described as follows: Ratio of total radioactivity of skeletal muscle to blood in rats.
For series [7], the system named is Rattus norvegicus. The series can be described thus: Total radioactivity 1 hour after intravenous administration of 1 mg/kg in rat heart. In kind it is functional.
A short description of series [8]: Ratio of total radioactivity of heart tissue to blood in rats. In kind it is tissue-based.

What is called logD is lipophilicity at a set pH, counting ionised and neutral species. Low values mean a more hydrophilic compound, high ones a more lipophilic compound. A word on the IC50: it is the concentration needed to halve the response being measured. Read a low IC50 as inhibition by little substance. `Cc1c(C)c2c(c(C)c1O)CCC(C)(CC[N+](C)(C)C)O2` (stereo unspecified) showed a logD in series [1] of -0.6. Moreover, the IC50 in the series filed under Rattus norvegicus [2] worked out at 1.7 µM.

`Cc1c(C)c2c(c(C)c1O)CCC(C)(CCN(C)C)O2` (stereo unspecified) showed a logD in series [1] of 1.15. In the series listed under Rattus norvegicus [2], this molecule gave an IC50 of 0.5 µM.

Turning to `CC(=O)Oc1c(C)c(C)c2c(c1C)CCC(C)(CC[N+](C)(C)C)O2` (stereo unspecified), the logD in series [1] was -0.18. Also, the values for the Total radioactivity in the series on Rattus norvegicus [3], in the series with Rattus norvegicus [4] and with Rattus norvegicus [7] were 0.11, 0.19 and 2.28, respectively. In addition, the Ratio in series [5] turned out to be 1; in series [6], 1.7; in series [8], 20.7.

Take `Cc1c(C)c2c(c(C)c1O)CCC(C)(C(=O)O)O2` (stereo unspecified) [TROLOX]: the logD in series [1] was -1.02. The molecule also registered an IC50 in the series listed under Rattus norvegicus [2] of 12 µM.

In the series listed under Rattus norvegicus [2], `Cc1c(C)c2c(c(C)c1O)CC[C@@](C)(CCC[C@H](C)CCC[C@H](C)CCCC(C)C)O2` (racemic) [ALPHA-TOCOPHEROL] returned an IC50 of 12 µM. This lies in the double-digit micromolar range.

The molecule `CC(=O)Oc1c(C)c(C)c2c(c1C)CCC(C)(CCN(C)C)O2` (stereo unspecified) yielded a logD in series [1] of 1.56. Further, the Total radioactivity in the series with Rattus norvegicus [3] is reported as 0.18; with Rattus norvegicus [4], 0.27; with Rattus norvegicus [7], 0.28. In addition, the Ratio in series [5] worked out at 1; in series [6], 1.5; in series [8], 1.6.

The values are drawn from ChEMBL document CHEMBL1125729, “A cardioselective, hydrophilic N,N,N-trimethylethanaminium alpha-tocopherol analogue that reduces myocardial infarct size” (J Med Chem, 1991).
